Measured values: patent US20140242093A1, “METHODS AND COMPOSITIONS FOR MODULATING THE INNATE IMMUNE RESPONSE AND/OR MYOGENESIS IN A MAMMALIAN SUBJECT” (FRED HUTCHINSON CANCER RESEARCH CENTER, priority 2011, published 2014)

System: control human primary myoblasts
Test: Expression microarray of primary myoblasts transduced with lentivirus carrying DUX4-fl, DUX4-s or GFP
Method: Primary human myoblasts were collected and cultured as previously described (Snider et al., 2010). Primary myoblasts were maintained at or below 70% confluency for proliferation. For differentiation, cells were allowed to reach 95-100% confluency in growth medium. Once confluency was reached, the cells were changed to differentiation medium (F10 media supplemented with 1% horse serum, 10 μg/mL insulin, and 10 μg/mL transferrin, penicillin/streptomycin) and maintained for 4 days. Human RD cells were grown in DMEM in 10% bovine calf serum (Hyclone) and penicillin/streptomycin. The primary myoblasts were transduced with lentivirus carrying DUX-fl, DUX4- or GFP (MOI=15).
Expression microarrays were performed on the transduced cells at 24 hours after transduction as follows. […] Samples were analyzed by Illumina Human Whole Genome microarrays. Probe intensities were corrected, normalized, and summarized by the Lumi package of Bioconductor (Du et al., 2008). Differentially expressed genes were identified by the LIMMA package of Bioconductor (Wettenhall and Smyth, 2004). Gene set enrichment analysis (GSEA) was performed using the Bioconductor GOstats package (Falcon and Gentleman, 2007).

## DUX4-fl: full-length DUX4 protein (SEQ ID NO:110), expressed from lentiviral or pCS2 vectors or in vitro translated
Refseq XM_001131473.2
  LOC728450 expression fc: 2.474
Refseq XM_001132711.1
  RFNG fc: −1.116
Refseq XM_001133386.1
  LOC732416 expression fc: 2.329
Refseq XM_001134346.1
  THOC4 expression fc: 4.035
Refseq XM_001713659.1
  PRAMEF15 expression fc: 7
Refseq XM_001713681.1
  LOC100131392 expression fc: 6.976
Refseq XM_001713808.1
  LOC100132564 expression fc: 3.588
Refseq XM_001713901.1
  LOC391769 expression fc: 8.19
Refseq XM_001713933.1
  PRAMEF13 expression fc: 7.422
Refseq XM_001714028.1
  PRAMEF11 expression fc: 5.94
Refseq XM_001714301.1
  fc of LOC285296 (expression array): −1.042
Refseq XM_001714755.1
  LOC100133588 expression fc: 2.2
Refseq XM_001714786.1
  CTGLF7 expression fc: 3.437
Refseq XM_001714940.1
  LOC100129630 expression fc: 1.871
Refseq XM_001715080.1
  LOC391763 expression fc: 1.963
Refseq XM_001717781.1
  LOC642446 expression fc: 3.101
Refseq XM_001717965.1
  LOC100133446 expression fc: 4.635
Refseq XM_001718314.1
  LOC100129165 fc: −1.161
Refseq XM_001718563.1
  LOC643336 expression fc: 1.934
Refseq XM_001718702.1
  LOC100129053 expression fc: 2.724
Refseq XM_001719052.1
  LOC100130652 expression fc: 3.33
Refseq XM_001719234.1
  RFPL4A expression fc: 4.348
Refseq XM_001719546.1
  LOC728809 fc: −1.14
Refseq XM_001719549.1
  LOC100134199 expression fc: 8.048
Refseq XM_001721351.1
  PNMA6B expression fc: 3.603
Refseq XM_001723079.1
  LOC100133984 expression fc: 6.204
Refseq XM_001723218.1
  LOC649330 expression fc: 3.101
Refseq XM_001723719.1
  LOC100128202 expression fc: 3.711
Refseq XM_001724111.1
  LOC100130311 expression fc: 2.912
Refseq XM_001724873.1
  LOC100131539 expression fc: 4.629
Refseq XM_001725030.1
  LOC100134006 expression fc: 7.087
Refseq XM_001726158.1
  LOC730167 expression fc: 3.656
Refseq XM_001726834.1, cultured human skeletal muscle
  LOC100129681 expression fc: −4.075
Refseq XM_001732813.1
  LOC651709 expression fc: 2.304
Refseq XR_015137.1
  LOC727828 expression fc: 3.054
Refseq XR_015272.2
  LOC728060 fc: −1.095
Refseq XR_015873.1
  LOC732393 expression fc: 4.637
Refseq XR_016048.1
  MGC40489 expression fc: 2.542
Refseq XR_016355.1
  LOC643263 expression fc: 8.345
Refseq XR_017029.1
  LOC441081 expression fc: 3.764
Refseq XR_018122.1
  LOC647366 expression fc: 3.783
Refseq XR_018122.2
  LOC440041 expression fc: 3.895
Refseq XR_018213.1
  LOC647827 expression fc: 4.053
Refseq XR_018287.2
  LOC399988 expression fc: 1.966
Refseq XR_018889.1
  LOC650215 fc: −1.139
Refseq XR_019556.2
  fc of RBMS2P (expression array): −0.4507
Refseq XR_019607.1
  LOC642148 expression fc: 6.851
Refseq XR_036872.1
  LOC650236 expression fc: 2.915
Refseq XR_037416.1
  LOC100134322 expression fc: 2.488
Refseq XR_037751.1
  LOC730974 expression fc: 7.715
Refseq XR_038080.1
  LOC643445 expression fc: 8.25
Refseq XR_038445.1
  LOC729516 expression fc: 5.955
Refseq XR_038494.1
  LOC340970 expression fc: 8.316
Refseq XR_038557.1
  LOC645381 expression fc: 2.089
Refseq XR_038921.1
  LOC728429 expression fc: 2.178
Refseq XR_040455.1
  LOC645638 fc: −1.128
Refseq XR_041115.1
  LOC400464 expression fc: 2.831
Refseq XR_041244.1
  TRIM53 expression fc: 4.778
Refseq XR_042330.1, cultured human skeletal muscle
  LOC729009 expression fc: −2.654
Table 1
  number of genes increased 8-fold or more: 164 genes
  number of genes increased 16-fold or more: 107 genes
Cultured human skeletal muscle
  ABCC3 expression fc: −1.491
  ADM expression fc: −1.619
  AGTRAP expression fc: −1.467
  AHNAK expression fc: −1.441
  ANGPTL2 expression fc: −1.893
  ANKFY1 expression fc: −1.396
  APOL3 expression fc: −1.548
  ARHGEF19 expression fc: −1.4
  ARID3A expression fc: −1.573
  ASNS expression fc: −1.454
  ATF5 expression fc: −1.826
  ATL3 expression fc: −1.455
  BHLHB2 expression fc: −1.43
  BTG2 expression fc: −1.573
  BTN3A2 expression fc: −1.759
  BTN3A3 expression fc: −1.62
  C1RL expression fc: −1.627
  C4orf18 expression fc: −1.781
  C8orf13 expression fc: −1.412
  C14orf4 expression fc: −1.476
  C18orf56 expression fc: −1.619
  CA9 expression fc: −1.526
  CABC1 expression fc: −1.494
  CABYR expression fc: −1.758
  CCDC8 expression fc: −1.453
  CEBPD expression fc: −1.521
  CLDN15 expression fc: −1.554
  CNTNAP1 expression fc: −1.744
  COL8A1 expression fc: −1.527
  CRISPLD2 expression fc: −1.752
  CSF3 expression fc: −1.626
  CYGB expression fc: −1.398
  CYP26B1 expression fc: −1.461
  CYP27A1 expression fc: −1.6
  DAB2 expression fc: −1.807
  DCN expression fc: −1.673
  DDB2 expression fc: −1.408
  DDIT4 expression fc: −1.522
  DDX60L expression fc: −1.638
  DKFZp451A211 expression fc: −1.833
  DNAJB2 expression fc: −1.488
  DUSP10 expression fc: −1.39
  ERAP2 expression fc: −1.605
  ESPNL expression fc: −1.567
  FADS1 expression fc: −1.845
  FAM110B expression fc: −1.675
  FAM175A expression fc: −1.54
  FHL2 expression fc: −1.58
  FILIP1L expression fc: −1.784
  FKBP5 expression fc: −1.758
  FOXQ1 expression fc: −1.432
  FPR1 expression fc: −1.603
  FST expression fc: −1.812
  FUCA1 expression fc: −1.615
  GALK1 expression fc: −1.411
  GALNTL2 expression fc: −1.834
  GAS1 expression fc: −1.732
  GBP4 expression fc: −1.478
  GFPT2 expression fc: −1.612
  GPX8 expression fc: −1.606
  GRINA expression fc: −1.427
  GSDMD expression fc: −1.763
  HAS2 expression fc: −1.679
  HCG4 expression fc: −1.651
  HES4 expression fc: −1.751
  HLA-C expression fc: −1.788
  HLA-H expression fc: −1.798
  HOXC6 expression fc: −1.539
  ID3 expression fc: −1.627
  IDH3B expression fc: −1.542
  IFIT5 expression fc: −1.645
  IFITM2 expression fc: −1.713
  IGFBP5 expression fc: −1.441
  IHPK3 expression fc: −1.859
  IL32 expression fc: −1.681
  IMPA2 expression fc: −1.437
  IRAK2 expression fc: −1.447
  IRAK3 expression fc: −1.5
  ISCU expression fc: −1.547
  ITPRIP expression fc: −1.763
  KIAA1618 expression fc: −1.843
  KLF6 expression fc: −1.659
  KRT17 expression fc: −1.626
  LAP3 expression fc: −1.552
  LIMA1 expression fc: −1.463
  LOC387763 expression fc: −1.46
  LOC389386 expression fc: −1.521
  LOC392437 expression fc: −1.674
  LOC653879 expression fc: −1.416
  LOC728431 expression fc: −1.44
  MAMDC2 expression fc: −1.858
  MAOA expression fc: −1.71
  MCEE expression fc: −1.398
  MGC16121 expression fc: −1.828
  MIOS expression fc: −1.485
  MLPH expression fc: −1.788
  MMP3 expression fc: −1.509
  MOCOS expression fc: −1.716
  MOV10 expression fc: −1.658
  MSC expression fc: −1.605
  MSI2 expression fc: −1.763
